Paper PMC5132392, “Identification of a Highly Conserved Hypothetical Protein TON_0340 as a Probable Manganese-Dependent Phosphatase” (PLoS ONE, 2016)

Biological target: T1, TON_0340 (Thermococcus onnurineus, UniProt B6YTD8)
T1 construct: C-terminal CPD-(His)10 fusion auto-cleaved with phytate; E. coli BL21(DE3) RIPL; assay sample from dissolved crystals, EDTA-treated
T1 sequence (B6YTD8 1-268): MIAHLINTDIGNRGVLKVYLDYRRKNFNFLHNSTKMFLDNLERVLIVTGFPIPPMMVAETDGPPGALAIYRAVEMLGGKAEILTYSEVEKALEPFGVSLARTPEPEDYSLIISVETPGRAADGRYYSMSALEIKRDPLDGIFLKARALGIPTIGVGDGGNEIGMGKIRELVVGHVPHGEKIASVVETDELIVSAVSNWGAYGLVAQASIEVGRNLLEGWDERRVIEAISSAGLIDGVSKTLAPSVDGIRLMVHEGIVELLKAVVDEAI
Test: inorganic phosphate release (EnzChek / malachite green)
Format: biochemical
Conditions: 2 mM AMP, 2 mM MnCl2, 100 mM HEPES pH 7.5, 100 mM NaCl, 37°C; Mn2+-dependent

## Nc1ncnc2c1ncn2[C@@H]1O[C@H](COP(=O)(O)O)[C@@H](O)[C@H]1O [AMP]
  inorganic phosphate release (EnzChek / malachite green): The highest activity was observed with AMP
